The target in this experiment is T1, GSPT1 protein (Homo sapiens, UniProt P15170+Q96SW2).
T1 construct: endogenous in cells; host or cells: Jeko-1
Nature of the experiment: Western blot detection of degradation activity of GSPT1 protein in Jeko-1 cells. The note with it: for inhibition at 0.1 µM / inhibition at 10 µM / inhibition at 0.01 µM / inhibition at 1 µM: JeKo-1, 24 h, read-out: GSPT1 degradation rate (%). The experiment is classed as cell-based. The procedure: Test Example 1: Western Blot Detection of Degradation Activity of GSPT1 Protein by the Compounds
Cell line: Jeko-1 cell line was cultured with an RPMI1640 media containing 20% fetal bovine serum in an incubator at 37° C., 5% CO2, and saturated humidity.
DMSO control group and test compound (concentration shown in the table below) were set up, after processing for 24 hours, the cells were collected, pre-cooled cell lysate was added and left on ice for 10 minutes. The total protein of the cells was extracted, and the protein concentration was measured and quantified using the BCA method. Routine gel preparation, sample loading, electrophoresis were conducted, then the membrane was transferred, and sealed, wherein the primary antibody was diluted with a blocking solution at 1:500-5000. The membrane was immersed in the diluted primary antibody and incubated overnight at 4° C. After rinsing, the secondary antibody was diluted with a sealing solution at 1:10000-20000, the membrane was immersed in the diluted secondary antibody, and incubated at room temperature for 45 minutes. After rinsing, the results were tested on ODYSSEY (Li-COR). GAPDH was used as an internal reference control.
Image J software was used to perform gray level analysis on each band and the degradation rate of GSPT1 protein by the compounds was calculated.
On the technique in general: In western blotting, separated proteins are transferred to a membrane and probed.

Read-outs that look alike come from different tables or passages of the source.

T1 sequence (P15170 whole entry): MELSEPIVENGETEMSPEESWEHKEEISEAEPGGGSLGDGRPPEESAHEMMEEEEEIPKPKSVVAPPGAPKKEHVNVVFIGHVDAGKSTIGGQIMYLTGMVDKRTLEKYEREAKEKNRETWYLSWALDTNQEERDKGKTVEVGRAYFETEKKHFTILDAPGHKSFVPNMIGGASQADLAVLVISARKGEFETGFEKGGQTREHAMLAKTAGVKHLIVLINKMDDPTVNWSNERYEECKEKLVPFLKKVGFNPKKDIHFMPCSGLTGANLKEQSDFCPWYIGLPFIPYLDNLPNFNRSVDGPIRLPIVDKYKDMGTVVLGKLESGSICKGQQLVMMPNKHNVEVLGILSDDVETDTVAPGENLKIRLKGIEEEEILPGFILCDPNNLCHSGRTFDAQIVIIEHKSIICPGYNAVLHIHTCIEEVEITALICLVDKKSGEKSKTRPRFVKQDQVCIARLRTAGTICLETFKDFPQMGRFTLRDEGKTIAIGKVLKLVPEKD
T1 sequence (Q96SW2 whole entry): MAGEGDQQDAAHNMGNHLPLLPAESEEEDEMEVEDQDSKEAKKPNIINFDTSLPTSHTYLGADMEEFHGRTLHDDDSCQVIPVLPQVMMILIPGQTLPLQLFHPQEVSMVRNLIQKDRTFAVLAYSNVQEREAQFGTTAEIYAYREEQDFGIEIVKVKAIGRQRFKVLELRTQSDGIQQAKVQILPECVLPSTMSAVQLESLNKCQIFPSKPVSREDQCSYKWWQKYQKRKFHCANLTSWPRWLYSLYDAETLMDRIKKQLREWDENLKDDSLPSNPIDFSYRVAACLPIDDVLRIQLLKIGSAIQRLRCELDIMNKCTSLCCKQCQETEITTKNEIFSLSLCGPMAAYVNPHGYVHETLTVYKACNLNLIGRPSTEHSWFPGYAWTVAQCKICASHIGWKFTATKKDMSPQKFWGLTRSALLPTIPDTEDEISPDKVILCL
T1 sequence (Q16531 whole entry partner): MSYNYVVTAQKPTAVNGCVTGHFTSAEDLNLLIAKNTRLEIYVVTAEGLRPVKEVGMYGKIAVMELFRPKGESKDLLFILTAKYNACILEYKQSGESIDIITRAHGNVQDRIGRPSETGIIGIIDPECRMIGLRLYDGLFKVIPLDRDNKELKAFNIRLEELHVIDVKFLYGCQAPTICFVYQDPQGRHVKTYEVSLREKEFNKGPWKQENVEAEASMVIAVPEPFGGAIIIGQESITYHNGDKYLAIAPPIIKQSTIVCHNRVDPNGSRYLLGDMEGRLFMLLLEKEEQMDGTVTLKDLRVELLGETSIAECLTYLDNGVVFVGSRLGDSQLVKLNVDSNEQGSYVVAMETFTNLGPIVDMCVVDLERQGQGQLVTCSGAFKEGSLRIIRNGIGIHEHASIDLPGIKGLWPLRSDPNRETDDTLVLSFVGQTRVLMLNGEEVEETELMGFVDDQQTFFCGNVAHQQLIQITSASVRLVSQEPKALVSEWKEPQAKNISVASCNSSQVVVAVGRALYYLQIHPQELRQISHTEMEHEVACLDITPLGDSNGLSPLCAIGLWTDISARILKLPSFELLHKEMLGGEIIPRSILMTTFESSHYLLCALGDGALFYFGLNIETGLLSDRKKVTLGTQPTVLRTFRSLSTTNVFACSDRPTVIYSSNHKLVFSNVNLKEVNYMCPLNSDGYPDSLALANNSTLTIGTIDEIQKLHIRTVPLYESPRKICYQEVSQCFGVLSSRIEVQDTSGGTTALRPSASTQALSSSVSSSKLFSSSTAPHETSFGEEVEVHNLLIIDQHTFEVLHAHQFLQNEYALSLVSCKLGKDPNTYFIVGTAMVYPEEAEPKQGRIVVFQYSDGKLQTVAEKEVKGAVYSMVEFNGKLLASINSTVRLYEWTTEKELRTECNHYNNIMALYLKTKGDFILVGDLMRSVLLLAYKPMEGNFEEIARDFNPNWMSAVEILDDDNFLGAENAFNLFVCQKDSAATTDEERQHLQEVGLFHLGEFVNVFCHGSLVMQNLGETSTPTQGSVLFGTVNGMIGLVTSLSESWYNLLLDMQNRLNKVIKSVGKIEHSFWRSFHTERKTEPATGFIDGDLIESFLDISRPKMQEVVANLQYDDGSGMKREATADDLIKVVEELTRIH

For `CC(C)(C)OC(=O)N[C@H](Cc1ccccc1Cl)C(=O)NCc1ccc2c(c1)CN(C1CCC(=O)NC1=O)C2=O` (stereo partly drawn) [Compound 5-83, Tert butyl ((2R)-3-(2-chlorophenyl)-1-((2-(2,6-dioxopyridin-3-yl)-1-oxoisoidoline-5-yl)methyl)amino)-1-oxopropan-2-yl) carbamate], where the note is “100 nM, Jeko-1 cells, 24 hours”, the inhibition at 0.1 µM turned out to be 96.2%. Further, the inhibition at 10 µM (10 μM, Jeko-1 cells, 24 hours) worked out at 95.5%.

`O=C1CCC(N2Cc3cc(CNC(=O)[C@@H](NC(=O)NCc4ccccc4)c4ccccc4)ccc3C2=O)C(=O)N1` (stereo partly drawn) [Compound 4-184, (2S)-2-(3-benzylurea)-N-((2-(2,6-dioxopyridin-3-yl)-1-oxoisoidoline-5-yl)methyl)-2-phenylacetamide]: the inhibition at 0.1 µM (100 nM, Jeko-1 cells, 24 hours) is 21%. The inhibition at 10 µM (10 μM, Jeko-1 cells, 24 hours) is 85%.

Turning to `O=C1CCC(N2Cc3cc(CNC(=O)C(CNC(=O)C4CCCC4)c4ccccc4)ccc3C2=O)C(=O)N1` [Compound 5-53, N-((2R)-3-((2-(2,6-dioxypiperidin-3-yl)-1-oxoisoindolin-5-yl)methyl)amino)-3-oxo-2-phen ylpropyl) cyclopentyl Formamide], the inhibition at 0.1 µM (100 nM, Jeko-1 cells, 24 hours) was found to be 26.1%. Besides, under “10 μM, Jeko-1 cells, 24 hours”, the inhibition at 10 µM worked out at 91.2%.

Take `O=C1CCC(N2Cc3cc(CNC(=O)C(CNC(=O)C4CCCC4)c4ccccc4)ccc3C2=O)C(=O)N1` (stereo not shown) [Compound 5-9]: the “GSPT1 degradation rate (%)” value reads like this: (100 nM, Jeko-1 cells, 24 hours) 45%; (10 μM, Jeko-1 cells, 24 hours) 93%.

Consider `O=C1CCC(N2Cc3cc(CNC(=O)C(CNC(=O)Nc4ccccc4)c4ccccc4)ccc3C2=O)C(=O)N1` (stereo not shown) [Compound 5-11, N-((2-(2,6-dioxypiperidin-3-yl)-1-oxoisoindolin-5-yl)methyl)-2-phenyl-3-(3-phenylurea) propionamide], for which the inhibition at 0.1 µM was 17% and the inhibition at 10 µM was 77%.

Turning to `O=C1CCC(N2Cc3cc(CNC(=O)[C@@H](NC(=O)OC4CCOC4)c4ccccc4)ccc3C2=O)C(=O)N1` (stereo partly drawn) [Compound 6-01, ((1S)-2-(((2-(2,6-dioxopyridin-3-yl)-1-oxoisoindoline-5-yl)methyl)amino)-2-oxo-1-phenylethyl) carbamate-β-Oxocyclopentanol Ester], the inhibition at 0.01 µM turned out to be 10% and the inhibition at 1 µM came to 68%.

Turning to `CC(C)C[C@H](NC(=O)OC(C)(C)C)C(=O)NCc1ccc2c(c1)CN(C1CCC(=O)NC1=O)C2=O` (stereo partly drawn) [Compound 5-84, Tert butyl ((2S)-1-((2-(2,6-dioxypiperidin-3-yl)-1-oxoisoidoline-5-yl)methyl)amino)-4-methyl-1-oxapent-2-yl) carbamate], the inhibition at 0.1 µM (100 nM, Jeko-1 cells, 24 hours) turned out to be 52.7%. The inhibition at 10 µM (10 μM, Jeko-1 cells, 24 hours) amounted to 82.7%.

`O=C1CCC(N2Cc3cc(CNC(=O)[C@@H](NC(=O)OC4CCOCC4)c4ccccc4)ccc3C2=O)C(=O)N1` (stereo partly drawn) [Compound 6-03, ((1S)-2-(((2-(2,6-dioxopyridin-3-yl)-1-oxoisoindoline-5-yl)methyl)amino)-2-oxo-1-phenylethyl) carbamate-γ-Oxyhexanol Ester]: the inhibition at 0.01 µM amounted to 28% and the inhibition at 1 µM turned out to be 90%.

Take `CC(C)(C)NC(=O)NCC(Cc1ccccc1)C(=O)NCc1ccc2c(c1)CN(C1CCC(=O)NC1=O)C2=O` (stereo not shown) [Compound 4-188, 2-Benzyl-3-(3-(tertbutyl)urea)-N-((2-(2,6-dioxypiperidin-3-yl)-1-oxoisoindoline-5-yl)methyl) propionamide]: the inhibition at 0.1 µM (100 nM, Jeko-1 cells, 24 hours) was 32%. Besides, the inhibition at 10 µM (10 μM, Jeko-1 cells, 24 hours) is 63%.

Turning to `N[C@H](C(=O)NCc1ccc2c(c1)CN(C1CCC(=O)NC1=O)C2=O)c1ccccc1` (stereo partly shown) [Compound 4-87-2], the inhibition at 0.1 µM (100 nM, Jeko-1 cells, 24 hours) worked out at 21%. In addition, the inhibition at 10 µM (10 μM, Jeko-1 cells, 24 hours) stood at 15%.

For the compound `O=C1CCC(N2Cc3cc(CNC(=O)C(CNC(=O)OC4CCCC4)c4ccccc4)ccc3C2=O)C(=O)N1` (stereo not shown) [Compound 5-3, Cyclopentyl (3-((2-(2,6-dioxypiperidin-3-yl)-1-oxoisoindolin-5-yl)methyl)amino)-3-oxo-2-phenylpropyl) carbamate], the inhibition at 0.1 µM was determined as 76% and the inhibition at 10 µM was 49%.

The values above are taken from patent publication US20250214960A1, “COMPOUNDS HAVING ACTIVITY OF DEGRADING GSPT1 AND APPLICATION THEREOF” (SHANGHAI MEIZER PHARMACEUTICALS CO., LTD., priority 2021, published 2025).
